Test results: patent US12138369B2, “Magnetically-activated coating for treating biofilms, and associated systems and methods” (priority 2016, dated 2024)
Structures can show the parent of a compound that is named as a salt.

Assays:
[1] = test system: Pseudomonas aeruginosa PAO1 biofilms; assay: MBEC assay: antibiotic exposure with or without thermal shock, biofilm enumeration; type: cell-based; settings: for viable biofilm bacteria after combined treatment: 1 min thermal shock; for effect on biofilm populations: higher concentrations, antibiotic on its own, cannot reliably eliminate
Procedure: Biofilm Growth: Cryogenically preserved Pseudomonas aerugiona PAO1 (15692, American Type Culture Collection, Manassas, Va.) was thawed and streaked on an agar plate (Difco Nutrient Agar, Sparks, Md., USA). The agar plates were inverted and incubated at 37° C. for 24 hours. An inoculum was made by suspending two colony forming units (CFUs) from the agar plate in five milliliters of sterile tryptic soy broth (TSB, BD Bacto, Sparks, Md., USA) made as directed and incubated at 37° C. for 24 hours, achieving an average concentration of 2.12×109±0.07×10^9 CFU/mL. One milliliter of inoculum was then diluted into 15 mL TSB and mixed gently. One hundred fifty microliters of the diluted mixture was then placed into each well of the 96-well plate, except for the negative control wells which received 150 μL of TSB. The plate was part of an MBEC™ assay (Innovotech, Edmonton, AB, Canada) in which a corresponding array of 96 pegs protrudes from the plate lid into the wells, providing a convenient array of substrates for biofilm growth which are then readily transferred to new wells (Harrison et al. 2010). The peg lid was placed onto the 96-well plate then sealed using Parafilm and placed on an orbital shaker table (VWR 1000, 15 mm orbit, Thorofare, N.J., USA) at 160 rpm and incubated at 37° C. for 24 hours.
Antibiotic Preparation: A stock of 5 mg/mL ciprofloxacin in sterile, de-ionized water was prepared with ciprofloxacin hydrochloride (MP Biomedicals, Santa Ana, Calif., USA) and mixed thoroughly. Tobramycin stock was made in a similar fashion by mixing 5 mg/mL tobramycin sulfate salt (Sigma-Aldrich, St. Louis, Mo., USA) in sterile, de-ionized water. Erythromycin was obtained from MP Biomedicals and the stock was prepared by mixing 5 mg/mL erythromycin into ethanol. Each antibiotic mixture was then filter sterilized through a […] PES membrane sterile filter (Millex®GP filter unit) and stored at 2° C. Each antibiotic was then diluted from the stock solution into sterile TSB at an array of concentrations in a 96-well challenge plate used that day.
Antibiotic Exposure: After 24 hr of growth, the array of biofilm-covered pegs was transferred into a 96-well rinse plate (Costar® 96 well flat bottom cell culture, Corning Incorporated, NY, USA) containing 200 μL/well de-ionized, sterile water at ambient temperature for 2 min to remove bacteria not incorporated in the biofilm. The peg lid was then transferred to a 96-well challenge plate of wells containing 200 μL of various concentrations of ciprofloxacin, tobramycin, or erythromycin diluted in TSB. For the antibiotic experiments without thermal shock the peg lid was exposed to a single challenge plate for 24 hours in an incubator at 37° C. before rinsing again for 2 min in a new rinse plate. The peg lid was then transferred to a recovery plate containing 200 μL/well fresh, sterile TSB for resuspension and enumeration.
Antibiotic and Thermal Exposure: To investigate the combined effect of antibiotics and thermal shock, biofilms cultured and exposed to antibiotics as discussed above were removed from their antibiotic challenge plate after only four hours. They were quickly transferred to a challenge plate with the same array of antibiotic concentrations, preheated to the target temperature by a thermostatted water bath. Temperatures of 37° C., 50° C., 60° C., 70° C., and 80° C. were studied at exposure times of 1, 5, and 30 min. The pegs were left in the heated challenge plate for the desired exposure time, then transferred to a new challenge plate with the same antibiotic concentrations at 37° C. and incubated for the remainder of the total 24 hour antibiotic exposure time. Following 24 total hours of antibiotic exposure time the peg lid was rinsed once again for two minutes in a new rinse plate and placed into a recovery plate for resuspension and enumeration. […]

[2] = test system: dispersed planktonic bacteria (Pseudomonas aeruginosa PAO1); assay: Optical density measurements of planktonic bacteria dispersed from biofilm; type: cell-based
Procedure: Optical Density Measurements of Planktonic Bacteria: The planktonic bacteria that had escaped the biofilm via dispersion after the thermal treatment were optically observed to better understand the biofilm's dispersion post-thermal treatment while antibiotics were still present. To estimate the free-swimming bacteria following the antibiotic treatment, the optical density (BioTek Gen5 Microplate Reader, Winooski, Vt., USA) at 600 nm was measured for each well in the second challenge plate. The negative controls in the challenge plate contained only TSB and were used to calculate an average background.
Statistical Analysis: The statistical analysis of both the planktonic optical density reads and the logarithmic CFU counts were reported via their arithmetic mean and standard deviation. […] Statistical analysis was performed in GraphPad Prism 7 using the two-way ANOVA with a confidence interval of 95%.

O=C(O)c1cn(C2CC2)c2cc(N3CCNCC3)c(F)cc2c1=O [Ciprofloxacin, ciprofloxacin hydrochloride]
effect on biofilms ([1]; 0.125 μg/mL by itself): little effect
reduction of biofilm populations ([1]; 0.125 μg/mL combined with thermal shock at 60° C. for 5 min): five orders of magnitude
reduction of biofilm populations ([1]; 0.125 μg/mL combined with thermal shock at 70° C. for 1 min): five orders of magnitude
viable biofilm bacteria after combined treatment ([1]; 1 μg/mL combined with 70° C.): no viable bacteria
decrease in viable bacteria of biofilms ([1]; 1 μg/mL, regardless of the heating): at least a five-order magnitude decrease
decrease in viable bacteria of biofilms ([1]; 4 μg/mL (bloodstream concentration), regardless of the heating): at least a five-order magnitude decrease
viable biofilm bacteria after combined treatment ([1]; 4 μg/mL combined with 70° C.): no viable bacteria
effect on biofilm populations [1]: significantly reduce biofilm populations
effect on dispersed planktonic bacteria ([2]; 0.125, 1.0, and 4.0 μg/mL, OD 600 nm): effective against the planktonic bacteria
effect on dispersed planktonic bacteria ([2]; higher two concentrations (1.0, 4.0 μg/mL), regardless of thermal shock): killing off almost all the free-swimming bacteria

CC[C@H]1OC(=O)[C@H](C)[C@@H](O[C@H]2C[C@@](C)(OC)[C@@H](O)[C@H](C)O2)[C@H](C)[C@@H](O[C@@H]2O[C@H](C)C[C@H](N(C)C)[C@H]2O)[C@](C)(O)C[C@@H](C)C(=O)[C@H](C)[C@@H](O)[C@]1(C)O [Erythromycin, erythromycin]
decrease in viable bacteria of biofilms ([1]; 60° C. for 5 min, 64 μg/mL): 1.5 log(CFU/peg)
decrease in viable bacteria of biofilms ([1]; 60° C. for 5 min, 128 μg/mL): 2.7 log(CFU/peg)
decrease in viable bacteria of biofilms ([1]; 70° C. for 1 min, 64 μg/mL): 2.3 log(CFU/peg)
decrease in viable bacteria of biofilms ([1]; 70° C. for 1 min, 128 μg/mL): 6.0 log(CFU/peg)
effect on biofilms ([1]; any concentration, control temperature 37° C.): no effect
effect on biofilms ([1]; any concentration, in combination with 50° C. thermal treatments): no effect
effect on dispersed planktonic bacteria ([2]; 2 μg/mL): no discernible effect
effect on dispersed planktonic bacteria ([2]; 64 μg/mL, even without thermal shock): significant reduction in population
effect on dispersed planktonic bacteria ([2]; 128 μg/mL): further decrease in viable planktonic bacterial cells
effect on dispersed planktonic bacteria, combined treatment ([2]; with 60° C. thermal shock for 5 min): significantly reduced from the non-thermal-shocked values

tobramycin sulfate salt
effect of combined thermal shock and antibiotic on biofilm ([1]; 50° C. for 30 min, 60° C. for 5 min, and 70° C. for 1 min): larger than either treatment by itself
trend of biofilm mitigation with thermal exposure time ([1]; all non-zero concentrations, regardless of temperature (not at 37° C. control)): prolonged thermal exposure time increasing the overall efficacy of biofilm mitigation
effect on biofilm populations [1]: significantly reduce biofilm populations
effect on dispersed planktonic bacteria ([2]; 1.0, 2.0, and 4.0 μg/mL, OD 600 nm): effective against the planktonic bacteria
effect on dispersed planktonic bacteria ([2]; higher two concentrations (2.0, 4.0 μg/mL), regardless of thermal shock): killing off almost all the free-swimming bacteria
